Measured values published in publication PMC11066976 (Cell reports, 2023).
Where two headings read alike, the source gives them in different places. Blank lines part the entries; values can stand above or below the molecule they belong to.

What was measured:
Test in all cases: compensated interferometric reader
transcobalamin 2 (TCN2) [1] = target: T1, transcobalamin 2 (TCN2) (Homo sapiens, UniProt P20062); format: binding
T1 sequence (P20062 19-427): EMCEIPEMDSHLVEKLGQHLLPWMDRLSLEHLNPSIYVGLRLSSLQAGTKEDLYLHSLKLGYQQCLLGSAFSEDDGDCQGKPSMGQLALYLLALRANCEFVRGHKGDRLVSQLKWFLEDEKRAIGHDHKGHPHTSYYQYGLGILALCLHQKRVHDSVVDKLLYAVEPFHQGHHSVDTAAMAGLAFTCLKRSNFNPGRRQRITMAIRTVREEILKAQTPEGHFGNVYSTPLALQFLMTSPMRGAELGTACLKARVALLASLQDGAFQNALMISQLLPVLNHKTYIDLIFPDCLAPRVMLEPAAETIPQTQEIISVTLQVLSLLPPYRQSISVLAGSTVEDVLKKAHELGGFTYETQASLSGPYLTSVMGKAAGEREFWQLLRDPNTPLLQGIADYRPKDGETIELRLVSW

CD320 = target: T2, CD320 (Homo sapiens, UniProt Q9NPF0); format: binding
T2 sequence (Q9NPF0 36-229 limits assumed): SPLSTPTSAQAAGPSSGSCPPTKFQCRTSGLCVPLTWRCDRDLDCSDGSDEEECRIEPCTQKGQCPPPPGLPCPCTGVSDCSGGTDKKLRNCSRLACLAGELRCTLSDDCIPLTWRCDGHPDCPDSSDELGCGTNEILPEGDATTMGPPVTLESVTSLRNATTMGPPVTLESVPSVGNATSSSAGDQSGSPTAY

transcobalamin 2 (TCN2) [2] = target: T1, transcobalamin 2 (TCN2); format: binding; remark: listed apart in the source
Recombinant human TCN2 = target: T3, Recombinant human TCN2 (human, UniProt P20062 19-427)
T3 sequence (looked up): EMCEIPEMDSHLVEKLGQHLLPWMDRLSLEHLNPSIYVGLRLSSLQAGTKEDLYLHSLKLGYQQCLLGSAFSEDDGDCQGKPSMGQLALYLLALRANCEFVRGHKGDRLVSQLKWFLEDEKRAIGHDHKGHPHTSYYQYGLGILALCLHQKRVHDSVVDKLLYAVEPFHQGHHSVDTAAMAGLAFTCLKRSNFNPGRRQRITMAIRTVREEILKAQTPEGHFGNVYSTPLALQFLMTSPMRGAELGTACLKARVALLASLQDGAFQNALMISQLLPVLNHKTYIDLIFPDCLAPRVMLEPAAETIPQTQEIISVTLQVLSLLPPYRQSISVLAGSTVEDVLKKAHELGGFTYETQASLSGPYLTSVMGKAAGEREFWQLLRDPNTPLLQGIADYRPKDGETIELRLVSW

Kd (CD320): 11.8 nM
Molecule: CCCCCCCCCCCCC/C=C/[C@@H](O)[C@@H](N)COP(=O)(O)O [S1P]

Kd (transcobalamin 2 (TCN2) [2]): 0.14 nM
Molecule: CCCCCCCCCCCCC/C=C/[C@@H](O)[C@@H](N)CO [sphingosine]

Kd (transcobalamin 2 (TCN2) [2]): 0.19 nM
Molecule: Vitamin B12

The remaining lines, values behind:

Molecule: CCCCCCCCc1ccc(CCC(N)(CO)CO)cc1 [FTY720]
Kd (transcobalamin 2 (TCN2) [1]): 0.24 nM

B1: Recombinant human CD320 (receptor, UniProt Q9NPF0 36-229, looked up)
chain: SPLSTPTSAQAAGPSSGSCPPTKFQCRTSGLCVPLTWRCDRDLDCSDGSDEEECRIEPCTQKGQCPPPPGLPCPCTGVSDCSGGTDKKLRNCSRLACLAGELRCTLSDDCIPLTWRCDGHPDCPDSSDELGCGTNEILPEGDATTMGPPVTLESVTSLRNATTMGPPVTLESVPSVGNATSSSAGDQSGSPTAY
Kd (Recombinant human TCN2): 1.86 nM
